Results as given in PMC6166781 (Nature structural & molecular biology, 2017).

Key:
α1β3L297Aγ2 GABAAR = α1β3L297Aγ2 GABAAR (Homo sapiens, UniProt P14867+P28472, L322A); type: cell-based; details: for loss of sensitivity to potentiation versus wild type: L297A vs WT
α1β3γ2 GABAAR = α1β3γ2 GABAAR (Homo sapiens, UniProt P14867+P28472); type: cell-based
α1β3F301Aγ2 GABAAR = α1β3F301Aγ2 GABAAR (Homo sapiens, UniProt P14867+P28472, F326A); type: cell-based
GABAAR heteromers = details: cited from earlier work
α5TMD [1] = biological target: T1, α5TMD (Homo sapiens, UniProt P28472+P31644, DEL351-357/DEL363-425/E358R/G348Q/K256N/R347S/W349P); test: Whole-cell patch-clamp of α5TMD in transfected HEK-293T cells; type: cell-based
T1 sequence (P28472+P31644 with tags, fused parts or gaps P31644:K256N/P31644:R347S/P31644:G348Q/P31644:W349P/P31644:DEL351-357/P31644:E358R/P31644:DEL363-425): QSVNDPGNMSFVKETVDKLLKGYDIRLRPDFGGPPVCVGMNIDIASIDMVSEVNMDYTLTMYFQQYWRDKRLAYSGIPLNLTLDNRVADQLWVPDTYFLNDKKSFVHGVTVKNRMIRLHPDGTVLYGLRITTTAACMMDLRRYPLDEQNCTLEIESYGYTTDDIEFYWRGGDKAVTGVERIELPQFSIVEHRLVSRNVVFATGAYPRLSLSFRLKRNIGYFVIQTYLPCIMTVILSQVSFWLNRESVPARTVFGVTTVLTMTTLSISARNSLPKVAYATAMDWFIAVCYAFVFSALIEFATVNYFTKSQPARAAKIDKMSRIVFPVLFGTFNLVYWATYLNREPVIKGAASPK

α5TMD Q245L = biological target: T2, α5TMD Q245L (Homo sapiens, UniProt P28472, A271S/A273P/A277V/D270E/DELINS289-473LSISARNSLPKVAYATAMDWFIAVCYAFVFSALIEFATVNYFTKSQPARAAKIDKMSRIVFPVLFGTFNLVYWATYLNREPVIKGAASPK/I247V/I257T/I267L/I280V/L248I/L256M/L278F/M252L/S254C/S272V/T258V/V276T/W262L/Y269R); test: Thermostability binding experiment
T2 sequence (P28472 with tags, fused parts or gaps I247V/L248I/M252L/S254C/L256M/I257T/T258V/W262L/I267L/Y269R/D270E/A271S/S272V/A273P/V276T/A277V/L278F/I280V): T1 sequence (P28472+P31644 with tags, fused parts or gaps P31644:K256N/P31644:R347S/P31644:G348Q/P31644:W349P/P31644:DEL351-357/P31644:E358R/P31644:DEL363-425) with Q237L

α5TMD T287K T309A = biological target: T3, α5TMD T287K T309A (Homo sapiens, UniProt P28472, A271S/A273P/A277V/D270E/DELINS289-473LSISARNSLPKVAYAKAMDWFIAVCYAFVFSALIEFAAVNYFTKSQPARAAKIDKMSRIVFPVLFGTFNLVYWATYLNREPVIKGAASPK/I247V/I257T/I267L/I280V/L248I/L256M/L278F/M252L/S254C/S272V/T258V/V276T/W262Q/Y269R); type: cell-based
T3 sequence (P28472 with tags, fused parts or gaps I247V/L248I/M252L/S254C/L256M/I257T/T258V/W262Q/I267L/Y269R/D270E/A271S/S272V/A273P/V276T/A277V/L278F/I280V): T1 sequence (P28472+P31644 with tags, fused parts or gaps P31644:K256N/P31644:R347S/P31644:G348Q/P31644:W349P/P31644:DEL351-357/P31644:E358R/P31644:DEL363-425) with T279K, T301A

[2] = biological target: T4, α5TMD T287K (chimeric GABAAR, β3 subunit ECD fused to α5 subunit TMD) (Homo sapiens, UniProt P28472, A271S/A273P/A277V/D270E/DELINS289-473[…]/I247V/I257T/I267L/I280V/L248I/L256M/L278F/M252L/S254C/S272V/T258V/V276T/W262Q/Y269R); type: cell-based; details: T287K background; n = 6
T4 sequence (P28472 with tags, fused parts or gaps I247V/L248I/M252L/S254C/L256M/I257T/T258V/W262Q/I267L/Y269R/D270E/A271S/S272V/A273P/V276T/A277V/L278F/I280V): T1 sequence (P28472+P31644 with tags, fused parts or gaps P31644:K256N/P31644:R347S/P31644:G348Q/P31644:W349P/P31644:DEL351-357/P31644:E358R/P31644:DEL363-425) with T279K

[3] = biological target: T5, α5TMD T287K (chimeric GABAAR, β3 subunit ECD fused to α5 subunit TMD) (Homo sapiens, UniProt P28472, A271S/A273P/A277V/D270E/DELINS289-473LSISARNSLPKVAYAKAMDWFIAVCYAFVFSALIEFATVNYFTKSQPARAAKIDKMSRIVFPVLFGTFNLVYWATYLNREPVIKGAASPK/I247V/I257T/I267L/I280V/L248I/L256M/L278F/M252L/S254C/S272V/T258V/V276T/W262Q/Y269R); type: cell-based; details: EC50 of potentiation of histamine EC10-15 responses, Fig. 1e; n = 6
T5 sequence (P28472 with tags, fused parts or gaps I247V/L248I/M252L/S254C/L256M/I257T/T258V/W262Q/I267L/Y269R/D270E/A271S/S272V/A273P/V276T/A277V/L278F/I280V): T1 sequence (P28472+P31644 with tags, fused parts or gaps P31644:K256N/P31644:R347S/P31644:G348Q/P31644:W349P/P31644:DEL351-357/P31644:E358R/P31644:DEL363-425) with T279K

α5TMD Q245W = biological target: T6, α5TMD Q245W (Homo sapiens, UniProt P28472, A271S/A273P/A277V/D270E/DELINS289-473LSISARNSLPKVAYATAMDWFIAVCYAFVFSALIEFATVNYFTKSQPARAAKIDKMSRIVFPVLFGTFNLVYWATYLNREPVIKGAASPK/I247V/I257T/I267L/I280V/L248I/L256M/L278F/M252L/S254C/S272V/T258V/V276T/Y269R); test: Thermostability binding experiment
T6 sequence (P28472 with tags, fused parts or gaps I247V/L248I/M252L/S254C/L256M/I257T/T258V/I267L/Y269R/D270E/A271S/S272V/A273P/V276T/A277V/L278F/I280V): T1 sequence (P28472+P31644 with tags, fused parts or gaps P31644:K256N/P31644:R347S/P31644:G348Q/P31644:W349P/P31644:DEL351-357/P31644:E358R/P31644:DEL363-425) with Q237W

α5TMD [4] = biological target: T1, α5TMD; test: Thermostability binding experiment
α5TMD T287K W249L = biological target: T7, α5TMD T287K W249L (Homo sapiens, UniProt P28472, A271S/A273P/A277V/D270E/DELINS289-473LSISARNSLPKVAYAKAMDWFIAVCYAFVFSALIEFATVNYFTKSQPARAAKIDKMSRIVFPVLFGTFNLVYWATYLNREPVIKGAASPK/I247V/I257T/I267L/I280V/L248I/L256M/L278F/M252L/S254C/S272V/T258V/V276T/W262Q/W266L/Y269R); type: cell-based
T7 sequence (P28472 with tags, fused parts or gaps I247V/L248I/M252L/S254C/L256M/I257T/T258V/W262Q/W266L/I267L/Y269R/D270E/A271S/S272V/A273P/V276T/A277V/L278F/I280V): T1 sequence (P28472+P31644 with tags, fused parts or gaps P31644:K256N/P31644:R347S/P31644:G348Q/P31644:W349P/P31644:DEL351-357/P31644:E358R/P31644:DEL363-425) with W241L, T279K

α5TMD T287K Q245L = biological target: T8, α5TMD T287K Q245L (Homo sapiens, UniProt P28472, A271S/A273P/A277V/D270E/DELINS289-473[…]/I247V/I257T/I267L/I280V/L248I/L256M/L278F/M252L/S254C/S272V/T258V/V276T/W262L/Y269R); type: cell-based; details: leucine substitution of M1 Gln245
T8 sequence (P28472 with tags, fused parts or gaps I247V/L248I/M252L/S254C/L256M/I257T/T258V/W262L/I267L/Y269R/D270E/A271S/S272V/A273P/V276T/A277V/L278F/I280V): T1 sequence (P28472+P31644 with tags, fused parts or gaps P31644:K256N/P31644:R347S/P31644:G348Q/P31644:W349P/P31644:DEL351-357/P31644:E358R/P31644:DEL363-425) with Q237L, T279K

## CC(=O)[C@H]1CC[C@H]2[C@@H]3CC[C@H]4C[C@H](O)CC[C@]4(C)[C@H]3CC[C@]12C [allopregnanolone]
α1β3L297Aγ2 GABAAR
  EC50: 1.6 ± 0.2 µM
  loss of sensitivity to potentiation versus wild type: 5 fold
α1β3γ2 GABAAR
  EC50: 0.28 ± 0.04 µM
α1β3F301Aγ2 GABAAR
  EC50: 0.26 ± 0.06 µM

## CC(=O)[C@H]1CC[C@H]2[C@@H]3CC[C@@H]4C[C@@H](O)CC[C@]4(C)[C@H]3CC[C@]12C [epipregnanolone]
GABAAR heteromers
  potentiation of GABAAR heteromers (qualitative): weak potentiator

## NCCc1c[nH]cn1 [histamine]
α5TMD [1]; Fig. 1a
  agonist effect on receptor current: activated and then desensitised

## CC(=O)[C@H]1CC[C@H]2[C@@H]3CC[C@@H]4C[C@H](O)CC[C@]4(C)[C@H]3CC[C@]12C [pregnanolone]
α5TMD Q245L
  EC50: > 30 µM
α5TMD T287K T309A
  EC50: 2.2 ± 0.3 µM
[2]
  potentiation of submaximal (EC10-15) histamine doses: 325 ± 104%
[3]
  EC50: 1.3 ± 0.1 µM
α5TMD Q245W
  EC50: > 30 µM
α5TMD [4]
  EC50: 5.5 ± 0.3 µM
α1β3L297Aγ2 GABAAR
  EC50: 2.5 ± 0.2 µM
  loss of sensitivity to potentiation versus wild type: 10 fold
α1β3γ2 GABAAR
  EC50: 0.24 ± 0.02 µM
α5TMD T287K W249L
  EC50: > 10 µM
α1β3F301Aγ2 GABAAR
  EC50: 0.28 ± 0.04 µM
α5TMD T287K Q245L
  potentiation of histamine EC10-15 responses: ablated

## picrotoxin
α5TMD [1]; Fig. 1b
  effect on spontaneous inward leak current: blocks a spontaneous inward leak current
